This note sets out measurements from patent EP0601520A1, “Trifluorothymidine derivatives, process for producing the same and anti-cancer agent containing the same” (MITSUI TOATSU CHEMICALS, Inc., priority 1992, dated 1994).

Data set [1] in a line: Bodyweight change of the tumor-carrying mice in the anti-tumor activity test. Format: in vivo, CDF₁ mice. The source says: (§1) The compound obtained in Examples 1, 4, 9 or 11 was uniformly suspended in 0.5% aqueous methylcellulose solution. The compound obtained in Example 14 was uniformly suspended in 0.5% aqueous methylcellulose solution containing 0.1% TWEEN 80.
(§2) For the compounds obtained in Examples 1, 4, 9 and 11, female CDF₁ mice of 7 weeks old were used. For the compound obtained in Example 14, female CDF₁ mice of 6 weeks old were used. Each group consisted of 5 or 6 animals.
(§3) To the right abdomen of each mouse, 2 x 10⁶ tumor cells were subcutaneously transplanted. On the next day (day 1), the mice were randomly grouped and the suspension was compulsively administered to the mice by using an oral sound for successive 7 days (day 1 - day 7).

Data set [2] concerns Meth A fibrosarcoma. As to the kind of experiment: Anti-tumor activity, subcutaneously transplanted Meth A fibrosarcoma in mice, oral administration. The following applies: tumors weighed on day 14. Format: in vivo, CDF₁ mice.
Source text: as §1, §2
As the tumor, Meth A fibrosarcoma was used.
as §3
On day 14, the tumors were removed and weighed. The tumor growth ratio (%) was calculated according to the following equation: Tumor Growth Ratio (%) = T/C x 100 [formula] wherein T means the average weight of tumor of the treated group and C means the average weight of tumor of the control group. The results about the compounds obtained in Examples 1, 4, 9 and 11 are shown in Table 2, and the results about the compound obtained in Example 14 are shown in Table 3. In Table 2, "HCFU" means 1-hexyl carbamoyl-5-fluorouracil known as "Carmofur".

Setting [3] is: dose 100.0 mg/kg, Table 2 experiment, female CDF₁ mice.

For the compound `C#CCO[C@H]1C[C@H](n2cc(C(F)(F)F)c(=O)[nH]c2=O)O[C@@H]1COC(=S)c1ccc(C)cc1` [Example 1, 3'-O-propargyl-5'-O-(4-methyl-thiobenzoyl)-α,α,α-trifluorothymidine], the “Bodyweight Change” value is -0.4 g in data set [1] (dose 14.0 mg/kg oral, day 1 - day 7, female CDF₁ mice 7 weeks old, 0.5% methylcellulose suspension) and -3.2 g in data set [1] (dose 56.1 mg/kg oral, day 1 - day 7, female CDF₁ mice 7 weeks old, 0.5% methylcellulose suspension). Further, the “Tumor Weight Ratio (T/C:%)” value turned out to be 28.4% in data set [2] (dose 14.0 mg/kg oral, day 1 - day 7, female CDF₁ mice 7 weeks old) and 7.1% in data set [2] (dose 56.1 mg/kg oral, day 1 - day 7, female CDF₁ mice 7 weeks old).
Regarding `C#CCO[C@H]1C[C@H](n2cc(C(F)(F)F)c(=O)[nH]c2=O)O[C@@H]1COC(=S)c1ccc(Cl)cc1` [Example 4, 3'-O-propargyl-5'-O-(4-chlorothiobenzoyl)-α,α,α-trifluorothymidine], the “Bodyweight Change” value in data set [1] (dose 14.6 mg/kg oral, day 1 - day 7, female CDF₁ mice 7 weeks old, 0.5% methylcellulose suspension) is listed as -0.8 g; in data set [1] (dose 58.5 mg/kg oral, day 1 - day 7, female CDF₁ mice 7 weeks old, 0.5% methylcellulose suspension) it was -3.8 g. The “Tumor Weight Ratio (T/C:%)” value came out at 23.3% in data set [2] (dose 14.6 mg/kg oral, day 1 - day 7, female CDF₁ mice 7 weeks old) and 4.8% in data set [2] (dose 58.5 mg/kg oral, day 1 - day 7, female CDF₁ mice 7 weeks old).
On to `C#CCO[C@H]1C[C@H](n2cc(C(F)(F)F)c(=O)[nH]c2=O)O[C@@H]1COC(=S)c1ccc(SC)cc1` [Example 9, 3'-O-propargyl-5'-O-(4-thiomethylthiobenzoyl)-α,α,α-trifluorothymidine], for which the “Bodyweight Change” value in data set [1] (dose 15.0 mg/kg oral, day 1 - day 7, female CDF₁ mice 7 weeks old, 0.5% methylcellulose suspension) is -0.9 g; in data set [1] (dose 60.0 mg/kg oral, day 1 - day 7, female CDF₁ mice 7 weeks old, 0.5% methylcellulose suspension), -4.3 g. Moreover, the “Tumor Weight Ratio (T/C:%)” value in data set [2] (dose 15.0 mg/kg oral, day 1 - day 7, female CDF₁ mice 7 weeks old) is on record as 22.5%; in data set [2] (dose 60.0 mg/kg oral, day 1 - day 7, female CDF₁ mice 7 weeks old) it was 5.1%.
Take `C#CCO[C@H]1C[C@H](n2cc(C(F)(F)F)c(=O)[nH]c2=O)O[C@@H]1COC(=S)c1cccs1` [Example 11, 3'-O-propargyl-5'-O-(2-thiophenecarbothionyl)-α,α,α-trifluorothymidine]: the “Bodyweight Change” value in data set [1] (dose 13.8 mg/kg oral, day 1 - day 7, female CDF₁ mice 7 weeks old, 0.5% methylcellulose suspension) is -0.7 g; in data set [1] (dose 55.1 mg/kg oral, day 1 - day 7, female CDF₁ mice 7 weeks old, 0.5% methylcellulose suspension), -4.4 g. The “Tumor Weight Ratio (T/C:%)” value came to 27.6% in data set [2] (dose 13.8 mg/kg oral, day 1 - day 7, female CDF₁ mice 7 weeks old) and 5.8% in data set [2] (dose 55.1 mg/kg oral, day 1 - day 7, female CDF₁ mice 7 weeks old).
For `C#CCO[C@H]1C[C@H](n2cc(C(F)(F)F)c(=O)[nH]c2=O)O[C@@H]1COC(=S)c1ccccc1` [Example 14, 3'-O-propargyl-5'-O-thiobenzoyl-α,α,α-trifluorothymidine], the “Bodyweight Change” value in data set [1] (dose 13.6 mg/kg oral, day 1 - day 7, female CDF₁ mice 6 weeks old, 0.5% methylcellulose containing 0.1% TWEEN 80) was -0.5 g; in data set [1] (dose 54.4 mg/kg oral, day 1 - day 7, female CDF₁ mice 6 weeks old, 0.5% methylcellulose containing 0.1% TWEEN 80) it was -3.7 g. In addition, the “Tumor Weight Ratio (T/C:%)” value in data set [2] (dose 13.6 mg/kg oral, day 1 - day 7, female CDF₁ mice 6 weeks old) was 29.4%; in data set [2] (dose 54.4 mg/kg oral, day 1 - day 7, female CDF₁ mice 6 weeks old) it was 7.2%.
In the case of `CCCCCCNC(=O)n1cc(F)c(=O)[nH]c1=O` [HCFU, 1-hexyl carbamoyl-5-fluorouracil, reference compound], the “Bodyweight Change” value in data set [1] (setting [3]) is listed as -2.0 g. For the same compound, in data set [2] (setting [3]), the “Tumor Weight Ratio (T/C:%)” value worked out at 18.0%.
